Experimental data as given in patent EP0966960A1, “Agent for inhibiting carcinogenesis or tumor metastasis” (DAINIPPON INK AND CHEMICALS, INC., priority 1998, dated 1999).

Columns and labels:
[1] = system: colon cancer strain highly metastasizable to liver (MOUSE COLON 26); experiment: Inhibition of metastasis of colon cancer to liver; type: in vivo, BALB/c mouse; conditions: for Number of visible tumor tubers (average ± SD): liver
Procedure: The abdomen of a BALB/c mouse was sectioned, and 2 × 10^4 cells of a colon cancer strain highly metastasizable to liver (MOUSE COLON 26) were injected into the portal vein. Zeaxanthin (4 µg/mouse in Test Example 1; 40 µg/mouse in Test Example 2; 400 µg/mouse in Test Example 3) and all-trans retinoic acid (ATRA) as a positive control were orally administered everyday for 5 consecutive days after the inoculation with tumor cells and then the administration was discontinued for 2 days. The cycle of the 5-day administration and the 2-day discontinuation was repeated twice. Twenty days later, the mouse was sacrificed, and the number of visible tumor tubers in the liver was counted. In Table 2, the mark "*" indicates a significant difference when p < 0.005 (Whitney's U-test).

[2] = system: B16-BL6 melanoma cells; experiment: Inhibition of invasion of basement membrane (Transwell chamber); type: cell-based; conditions: 4 hours
Procedure: The action mechanism of zeaxanthin for inhibiting metastasis of colon cancer to the liver in Example 2 was examined using a Transwell chamber.
A chamber which is separated into two layers (upper and lower layers) by a membrane filter having pores of 8 µm in diameter was used, the upper surface of the filter being coated with 5 µg of matrigel (a substrate for restructuring a basement membrane), and the lower surface being coated with 1 µg of fibronectin. B16-BL6 melanoma cells having a cell density of […] were added to the upper layer of the chamber, and were incubated in a 5%-CO2 incubator at 37°C for 4 hours in the presence of 0.05∼500 µM of zeaxanthin. After the incubation, the number of cells which invaded the surface of the lower part of the filter and shifted thereto were counted using an optical microscope. […]

[3] = Acute toxicity test on mice; set-up: species or system mouse (ICR male); conditions: mouse, in vivo; oral by gastric probe, 1000 or 2000 mg/kg, n=3, 7 days observation; approximate, estimated from survival rate
Procedure: Using a gastric probe, zeaxanthin (having a purity of 98.5%) was forcibly orally administered to each mouse (ICR male weighing 20∼25 g, n=3) in an amount of 1000 or 2000 mg/kg. After the oral administration, the mice were reared in a cage for 7 days to observe the number of deaths and general conditions. An approximate median lethal dose (LD50, in mg/kg) was estimated from the survival rate of the mice after observation.

[4] = system: skin cancer; experiment: Inhibition of carcinogenesis (skin), 7,12-dimethylbenz[a]anthracene / TPA; type: in vivo, ICR male mouse
Procedure: The back of an ICR male mouse (control group: 15 mice; test group: 14 mice) was shaved, and 100 µg of 7,12-dimethylbenz[a]anthracene in 100 µl of acetone was applied thereto. Two days after the application, application of 1.6 nmol of 12-O-tetradecanoylphorbal-13-acetate (TPA) in 100 µl of acetone was begun and repeated twice a week. The duration of carcinogenesis promotion was set to 15 weeks.
An hour before every TPA application, 160 nmol zeaxanthin (which makes the molar ratio of TPA to zeaxanthin 1:100) in 100 µl of acetone was applied to the mice of test group. After the 15-week duration of carcinogenesis promotion, the ratio of occurrence of skin tumor and the average number of tumors were measured.
(§1) In Table 5, those values in parentheses indicate values obtained by dividing the number of mice in each group in which skin cancer occurred by the total number of mice in each group. The average number of tumors was obtained by dividing the total number of tumors in all mice in each group by the total number of mice in each group.

[5] = system: lung cancer; experiment: Inhibition of carcinogenesis (lung), 4-nitroquinoline-1-oxide initiator / glycerin promoter; type: in vivo, ddY mice
Procedure: As a carcinogenesis initiator, 4-nitroquinoline-1-oxide dissolved in a solution of olive oil and cholesterol mixed in the ratio of 20:1 was administered subcutaneously in a single dose to ddY mice (a control group of 15 mice and a test group of 15 mice) in an amount of 10 mg/3.3ml/kg weight. Four weeks after administration, an 8% water solution of glycerin as a carcinogenesis promoter was given to the mice of the control group as drinking water for 25 weeks in a manner such that they could take it freely. (The duration of carcinogenesis promotion was 25 weeks).
In a manner similar to that for the control group, the carcinogenesis initiator was subcutaneously administered to the mice of the test group, and 4 weeks after the administration, an 8% water solution of glycerin as a carcinogenesis promoter was given to the mice of the test group as drinking water for 25 weeks in a manner such that they could take it freely, while zeaxanthin suspended in a liquid mixture of olive oil and "Tween 80" was forcibly administered to the mice of the test group 3 times a week throughout the 25-week duration of carcinogenesis promotion in an amount of 0.2 g per mouse per administration.
In addition, food and drinking water was given to the mice in a manner such that they could take it freely. Twenty five weeks after the start of the administration of zeaxanthin, that is, after the duration of carcinogenesis promotion was completed, the mice of both the control group and the test group were sacrificed, and the number of mice in which lung cancer occurred, and the average number of tumors were counted.
as §1, with “4,” for “5,”, “lung” for “skin”

[6] = system: Naturally Occurring Hepatoma; experiment: Carcinogenesis-inhibiting effect with regard to naturally occurring hepatoma; type: in vivo, C3H/He female mice
Procedure: C3H/He female mice (control group: 14 mice; test group: 12 mice), in which hepatoma is known to occur naturally, were allowed to freely take food and water for 40 weeks. For the mice of the test group, 20 mg zeaxanthin (having a purity of 98.5%) which was obtained in a manner similar to that of the above example of production of zeaxanthin was suspended in 1 ml dimethyl sulfoxide (DMSO), and thereafter the suspension was added to the drinking water of the test so that the final concentration of zeaxanthin was 0.005%. On the other hand, for the control group, only DMSO in the same amount was added to the drinking water. At the end of the 40 weeks, both groups of mice were sacrificed, and the number of tumors which occurred in the liver was counted.

[7] = from average number of tumors, test group versus control group

CC1=C(/C=C/C(C)=C/C=C/C(C)=C/C=C/C=C(C)/C=C/C=C(C)/C=C/C2=C(C)C[C@@H](O)CC2(C)C)C(C)(C)C[C@H](O)C1 [zeaxanthin]
Number of visible tumor tubers (average ± SD) ([1]; 4 µg/mouse orally, 5 days on / 2 days off, cycle repeated twice, twenty days later (no administration 12.25 ± 6.13)): 6.86 ± 2.27 | Average weight of liver ([1]; 4 µg/mouse orally, twenty days later (no administration 2.16)): 1.36 g | Number of visible tumor tubers (average ± SD) ([1]; 40 µg/mouse orally, 5 days on / 2 days off, cycle repeated twice, twenty days later, * p < 0.005): 1.87 ± 1.96* | Average weight of liver ([1]; 40 µg/mouse orally, twenty days later): 0.99 g | Number of visible tumor tubers (average ± SD) ([1]; 400 µg/mouse orally, 5 days on / 2 days off, cycle repeated twice, twenty days later, * p < 0.005): 1.00 ± 2.13* | Average weight of liver ([1]; 400 µg/mouse orally, twenty days later): 0.99 g | Number of cells which invaded/shifted to basement membrane ([2]; 0.05 µM, 37°C (DMSO only 157 ± 21)): 137 ± 17 | Number of cells which invaded/shifted to basement membrane ([2]; 0.5 µM, 37°C): 119 ± 17 | Number of cells which invaded/shifted to basement membrane ([2]; 5 µM, 37°C, * p < 0.05): 109 ± 12* | Number of cells which invaded/shifted to basement membrane ([2]; 50 µM, 37°C, ** p < 0.005): 88 ± 7** | Number of cells which invaded/shifted to basement membrane ([2]; 500 µM, 37°C, ** p < 0.005): 36 ± 12** | LD50 at 168 h [3]: > 2000 mg/kg | Average number of tumors ([4]; 160 nmol applied an hour before every TPA application, 15 weeks (control 1.60)): 0.86 | Number of mice in which skin cancer occurred (divided by total number of mice) ([4]; 160 nmol applied an hour before every TPA application, 15 weeks (control 47%)): 21% | Number of mice in which skin cancer occurred ([4]; 160 nmol applied an hour before every TPA application, 15 weeks, 14 mice (control 7 of 15)): 3 | Inhibition ratio of carcinogenesis [4, 7]: 46% | Average number of tumors ([5]; 0.2 g per mouse per administration, 3 times a week, 25 weeks (control 1.40)): 0.38 | Number of mice in which lung cancer occurred (divided by total number of mice) ([5]; 0.2 g per mouse per administration, 3 times a week, 25 weeks (control 73%)): 33% | Number of mice in which lung cancer occurred ([5]; 0.2 g per mouse per administration, 3 times a week, 25 weeks, 15 mice (control 11 of 15)): 5 | Inhibition ratio of carcinogenesis [5, 7]: 73% | inhibition rate ([6]; test group versus control group, 40 weeks): 95% | Number of mice in which tumor occurred (percentage) ([6]; zeaxanthin 0.005% in drinking water, 40 weeks, 12 mice (control 35.7%)): 8.3% | Number of mice in which tumor occurred ([6]; zeaxanthin 0.005% in drinking water, 40 weeks, 12 mice, liver tumors (control 5 of 14)): 1 | Average number of tumors ([6]; zeaxanthin 0.005% in drinking water, 40 weeks, liver (control 1.75)): 0.08

CC1=C(/C=C/C(C)=C/C=C/C(C)=C/C(=O)O)C(C)(C)CCC1 [ATRA, all-trans retinoic acid, reference compound]
Number of visible tumor tubers (average ± SD) ([1]; positive control, orally, dose not given, twenty days later, * p < 0.005): 0.83 ± 1.17* | Average weight of liver ([1]; positive control, orally, dose not given, twenty days later): 0.92 g

CC1=C(/C=C/C(C)=C/C=C/C(C)=C/C=C/C=C(C)/C=C/C=C(C)/C=C/C2=C(C)CCCC2(C)C)C(C)(C)CCC1 [β-carotene, reference compound]
effect in inhibiting natural carcinogenesis ([6]; experiments conducted in the same manner as in Example 1): no such effect
